As a reminder, the Ki is the equilibrium dissociation constant of an inhibitor or competing ligand from its target.

This note sets out measurements from US20120115842A1 (priority 2004, published 2012).

In the assay the target is T1, human vasopressin V1b receptor (Homo sapiens, UniProt P47901).
T1 construct: expressed in transfected cells; host or cells: CHO-K1 (cell line hV1b-3H2_CHO), membranes
T1 sequence (P47901 1-424): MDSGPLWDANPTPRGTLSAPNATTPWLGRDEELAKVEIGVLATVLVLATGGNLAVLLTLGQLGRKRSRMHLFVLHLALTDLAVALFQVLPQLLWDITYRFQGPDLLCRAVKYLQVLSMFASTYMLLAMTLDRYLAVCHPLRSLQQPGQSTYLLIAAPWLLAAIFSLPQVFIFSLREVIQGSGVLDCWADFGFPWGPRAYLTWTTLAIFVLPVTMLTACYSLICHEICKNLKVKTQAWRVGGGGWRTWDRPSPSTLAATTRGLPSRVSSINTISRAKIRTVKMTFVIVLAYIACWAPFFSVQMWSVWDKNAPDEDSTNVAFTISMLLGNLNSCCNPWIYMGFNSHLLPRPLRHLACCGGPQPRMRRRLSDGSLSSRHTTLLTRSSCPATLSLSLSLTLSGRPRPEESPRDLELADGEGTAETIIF
The assay can be described thus: Vasopressin V1b receptor binding assay (3H-AVP displacement). The conditions noted are these: for Ki: membranes from CHO-K1 cells with stably expressed human V1b receptors, 1.5 nM 3H-AVP, read-out: affinity constants (Ki) for the human vasopressin V1b receptor; for selectivity vis-a-vis V1b by comparison with V1a, V2 and/or OT: quotient of Ki values: Ki(V1a)/Ki(V1b), Ki(V2)/Ki(V1b) and/or Ki(OT)/Ki(V1b). How it is done: The test substances were dissolved in a concentration of 10^−2 M in DMSO and further diluted to 5×10^−4 M to 5×10^−9 M in DMSO. These DMSO solutions were diluted 1:10 with assay buffer. The substance concentration was again diluted 1:5 in the assay mixture.
CHO-K1 cells with stably expressed human vasopressin V1b receptor (clone 3H2) were harvested and homogenized in 50 mM Tris-HCl and in the presence of protease inhibitors (Roche complete Mini #1836170) with a Polytron homogenizer at a medium setting for 2×10 seconds and subsequently centrifuged at 40 000×g for 1 h. The membrane pellet was again homogenized and centrifuged as described and then taken up in 50 mM Tris-HCl, pH 7.4, homogenized and stored in aliquots frozen in liquid nitrogen at −190° C.
The binding assay was carried out by a method based on that of Tahara et al. (Tahara A et al., Brit. J. Pharmacol. 125, 1463-1470 (1998)). The incubation buffer was: 50 mM Tris, 10 mM MgCl2, 0.1% BSA, pH 7.4.
In the assay mixture (250 μl), membranes (50 μg/ml protein in incubation buffer) from CHO-K1 cells with stably expressed human V1b receptors (cell line hV1b—3H2_CHO) were incubated with 1.5 nM ^3H-AVP (8-Arg-vasopressin, PerkinElmer #18479) in incubation buffer (50 mM Tris, 10 mM MgCl2, 0.1% BSA, pH 7.4) (total binding) or additionally with increasing concentrations of test substance (displacement experiment). The nonspecific binding was determined with 1 uM AVP (Bachem # H1780). All determinations were carried out as triplicate determinations. After incubation (60 minutes at room temperature), the free radioligand was removed by vacuum filtration (Skatron cell harvester 7000) through Wathman G F/B glass fiber filter mats, and the filters were transferred into scintillation vials. The liquid scintillation measurement took place in a Tricarb model 2000 or 2200CA instrument (Packard). Conversion of the measured cpm into dpm was carried out with the aid of a standard quench series.
The binding parameters were calculated by nonlinear regression in SAS. The algorithms of the program operate in analogy to the LIGAND analysis program (Munson P J and Rodbard D, Analytical Biochem. 107, 220-239 (1980)). The Kd of ^3H-AVP for the recombinant […] receptors is 0.4 nM and was used to determine the Ki value.

Regarding `COc1ccc(S(=O)(=O)N2C(=O)C(c3ccccc3OC)(N(C)[C@@H](C)C(=O)N(C)C)c3cc(C#N)ccc32)cc1` (mixture of isomers) [Example 15], the Ki was under 100 nM and the “selectivity vis-a-vis V1b by comparison with V1a, V2 and/or OT” value (“selectivity vis-a-vis V1b by comparison” for short) is reported as “improved selectivity”. In the same order, the values of `COc1ccc(S(=O)(=O)N2C(=O)C(c3ccccc3OC)(N3CC(O)CC3C(=O)N(C)C)c3cc(C#N)ccc32)c(OC)c1` (single isomer, unassigned) [Example 1] are under 100 nM and “improved selectivity”.

Consider `COc1ccc(S(=O)(=O)N2C(=O)C(c3ccccc3OC)(N3CC(O)CC3C(=O)N(C)C)c3cc(C#N)ccc32)c(OC)c1` (single isomer, unassigned; (+)) [Example 16], for which the “selectivity vis-a-vis V1b by comparison” value was “improved selectivity”.

`COc1ccc(S(=O)(=O)N2C(=O)C(c3ccccc3OC)(N3CCC[C@H]3C(=O)N(C)C)c3cc(C#N)ccc32)cc1` (single isomer, unassigned; (+)) [Example 17b]: the Ki was under 100 nM and the “selectivity vis-a-vis V1b by comparison” value is reported as “improved selectivity”.

With `COc1ccc(S(=O)(=O)N2C(=O)C(c3ccccc3OC)(N3C[C@H](O)C[C@H]3C(=O)N(C)C)c3cc(C#N)ccc32)cc1` (stereo partly drawn) [Example 19, (−)-(2S,4R)-1-[5-Cyano-1-(4-methoxybenzenesulfonyl)-3-(2-methoxyphenyl)-2-oxo-2,3-dihydro-1H-indol-3-yl]-4-hydroxypyrrolidine-2-dimethylcarboxamide], the Ki is under 100 nM and the “selectivity vis-a-vis V1b by comparison” value was “improved selectivity”.
